The text below walks through data of publication PMC6934184, “Selective DNA-PKcs inhibition extends the therapeutic index of localized radiotherapy and chemotherapy” (The Journal of Clinical Investigation, 2019).

The assay deals with T1, LIMK1 (Homo sapiens, UniProt P53667).
T1 construct: purchased Thermo Fisher Scientific (Life Technologies) SelectScreen
The experiment in a line: SelectScreen LanthaScreen. The format is binding. Particulars: read-out: % displacement. In outline: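 Percent values come from Thermo SelectScreen profiling of NU5455, combining activity and binding assays. CSF1R was run in Z'LYTE format at Km app ATP, and CAMK1 in Adapta format with ATP listed at 10.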

The structures appear in SMILES notation.

T1 sequence (P53667 whole entry): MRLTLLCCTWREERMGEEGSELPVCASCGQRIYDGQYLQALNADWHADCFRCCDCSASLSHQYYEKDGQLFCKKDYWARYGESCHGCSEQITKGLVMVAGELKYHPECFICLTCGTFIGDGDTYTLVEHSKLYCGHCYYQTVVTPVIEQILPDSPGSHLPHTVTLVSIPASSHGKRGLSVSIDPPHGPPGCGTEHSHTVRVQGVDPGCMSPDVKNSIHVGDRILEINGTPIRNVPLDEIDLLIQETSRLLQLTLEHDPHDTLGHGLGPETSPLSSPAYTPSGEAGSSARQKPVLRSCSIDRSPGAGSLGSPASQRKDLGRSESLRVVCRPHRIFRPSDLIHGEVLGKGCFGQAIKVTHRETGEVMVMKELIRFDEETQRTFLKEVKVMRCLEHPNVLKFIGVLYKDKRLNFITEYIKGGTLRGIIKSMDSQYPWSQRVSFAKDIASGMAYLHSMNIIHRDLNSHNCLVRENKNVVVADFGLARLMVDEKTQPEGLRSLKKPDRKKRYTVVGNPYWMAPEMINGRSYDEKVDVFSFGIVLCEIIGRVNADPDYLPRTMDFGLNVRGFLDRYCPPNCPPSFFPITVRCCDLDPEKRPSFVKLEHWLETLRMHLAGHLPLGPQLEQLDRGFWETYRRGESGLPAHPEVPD

With `CN(C(=O)CN1CCOCC1)c1ccc2sc3c(-c4cccc5c(=O)cc(N6CC7CCC(C6)O7)oc45)cccc3c2c1` [NU5455], the inhibition at 1 µM is -1.7%.
